The values below come from patent publication US20240124450A1, “Novel SIK Inhibitors” (Pfizer Inc., priority 2022, published 2024).

pEC50, pIC50: −log10 of the molar value. Like-named read-outs stand apart in the source and are kept apart here.

The target in test [1] is SIK1 (Homo sapiens (Human), UniProt P57059). Briefly: Pan SIK MS IC50 enzyme assay (SIK1). The class given is biochemical. The conditions noted are these: 1 mM ATP, substrate peptide AQT0868, LCMS/MS detection. The protocol: (§1) Enzyme Assay: Pan SIK MS IC50 Assay
(§2) Salt Induced Kinase (SIK) activity is determined by measuring the effect of a test agent on the activity of the appropriate SIK enzyme to phosphorylate its corresponding substrate. […] The phosphorylated substrate product resulting from the kinase reaction is detected by LCMS/MS, and the area under the peak curve correlates with kinase activity. […] The plates are spun at 1000 rpm for 30 seconds to ensure compounds are at the bottom of the well before removing foil covers. 0.15 μL HPE (assay std) and ZPE (DMSO) are added to the ARP using an HP D300 dispenser. Plates are spun again at 1000 rpm for 30 seconds. […] Plates are spun at 1000 rpm for 30 seconds. Plates are then sealed and incubated at RT for 10 minutes. Following incubation, 5 μL of 5× peptide reagent is added with a Multidrop Combi and designated small volume cassette to initiate the kinase reaction. Plates are spun at 1000 rpm for 30 seconds. Plates are then sealed and incubated at RT for 90 minutes. The assay is stopped by the addition of 5 μl of 120 mM EDTA added with a Multidrop Combi and designated small volume cassette (20 mM final concentration). Plates are spun at 1000 rpm for 30 seconds. 10 μl of the final reaction mix from each of the three individual enzyme plates are transferred by a Platemate Plus to the same corresponding 96 well deepwell plate containing 70 μl Water/Methanol (85/15%) for multiplex MS detection ([…]). Using Activity Base (ABase), an idbs data analysis software tool, the reported area ratio unit data is associated to compound, batch and dose information, the data is evaluated for quality, and the percent inhibition of each well is calculated. The data from each Max effect/HPE and Min effect/ZPE control wells are assessed, and outliers are excluded from all further calculations. The mean and standard deviation of the HPE and ZPE are then calculated for each plate, along with the Z Prime. The compound data is converted into % effect, using the average ZPE and HPE controls as 0% and 100% activity, respectively.

Test [2] deals with SIK2 (Homo sapiens (Human), UniProt Q9H0K1). Put plainly: Pan SIK MS IC50 enzyme assay (SIK2). The class given is biochemical. The conditions noted are these: 1 mM ATP, substrate peptide AQT0252, LCMS/MS detection. Here is the method:
as §1, §2

For test [3], the target named is SIK3 (Homo sapiens (Human), UniProt Q9Y2K2). Briefly: Pan SIK MS IC50 enzyme assay (SIK3). It counts as biochemical. Particulars: 1 mM ATP, substrate peptide AQT0508, LCMS/MS detection. The protocol:
as §1, §2

The test system of test [4] is TNFα release from human monocyte derived macrophages stimulated with LPS. Briefly: SIK macrophage cytokine assay, inhibition of TNFα release. The class given is cell-based. The conditions noted are these: 1 ng/mL LPS, 4 hours, HTRF, read-out: TNFa IC50. The protocol: (§3) Cytokine Assays: SIK Macrophage Assay Cytokine activity is determined by measuring the effect of a test agent on the inhibitory release of the cytokine TNFα and the increasing release of the cytokine IL10 from human monocyte derived macrophages (human macrophages) stimulated with lipopolysaccharide (LPS). At the time of assay, human macrophages (CGPS group Pfizer Groton, CT) are removed from cryopreservation, thawed quickly at 37° C., diluted in thaw medium (OptiMEM—Gibco medium, 10% heat inactivated fetal bovine serum (HIFBS)), and then centrifuged at 200×g for 10 minutes. […] After ˜60 minutes in an incubator at 37° C. in a humidified environment in 5% carbon dioxide the cells are stimulated by the addition of 5 μL of LPS (10 ng/mL; Sigma) and the assay plate is returned to an incubator at 37° C. in a humidified environment in 5% carbon dioxide for 4 hours. […] The final concentration of DMSO in the assay is approximately 0.1%. After 4 hours, the assay plate is removed from the incubator and centrifuged at 1500 rpm for 10 minutes. A portion of the resulting cell supernatant is then used to determine the amount of IL-10 and TNFα in each well. Cytokine measurements are made using human IL-10 and TNFα HTRF assay kits (Perkin Elmer) following the manufacturer's assay protocol.

Test [5] deals with IL10 release from human monocyte derived macrophages stimulated with LPS. Put plainly: SIK macrophage cytokine assay, increase of IL10 release. It counts as cell-based. The conditions noted are these: 1 ng/mL LPS, 4 hours, HTRF. Here is the method: as §3

Sequence of SIK1 (P57059 whole entry, species assumed): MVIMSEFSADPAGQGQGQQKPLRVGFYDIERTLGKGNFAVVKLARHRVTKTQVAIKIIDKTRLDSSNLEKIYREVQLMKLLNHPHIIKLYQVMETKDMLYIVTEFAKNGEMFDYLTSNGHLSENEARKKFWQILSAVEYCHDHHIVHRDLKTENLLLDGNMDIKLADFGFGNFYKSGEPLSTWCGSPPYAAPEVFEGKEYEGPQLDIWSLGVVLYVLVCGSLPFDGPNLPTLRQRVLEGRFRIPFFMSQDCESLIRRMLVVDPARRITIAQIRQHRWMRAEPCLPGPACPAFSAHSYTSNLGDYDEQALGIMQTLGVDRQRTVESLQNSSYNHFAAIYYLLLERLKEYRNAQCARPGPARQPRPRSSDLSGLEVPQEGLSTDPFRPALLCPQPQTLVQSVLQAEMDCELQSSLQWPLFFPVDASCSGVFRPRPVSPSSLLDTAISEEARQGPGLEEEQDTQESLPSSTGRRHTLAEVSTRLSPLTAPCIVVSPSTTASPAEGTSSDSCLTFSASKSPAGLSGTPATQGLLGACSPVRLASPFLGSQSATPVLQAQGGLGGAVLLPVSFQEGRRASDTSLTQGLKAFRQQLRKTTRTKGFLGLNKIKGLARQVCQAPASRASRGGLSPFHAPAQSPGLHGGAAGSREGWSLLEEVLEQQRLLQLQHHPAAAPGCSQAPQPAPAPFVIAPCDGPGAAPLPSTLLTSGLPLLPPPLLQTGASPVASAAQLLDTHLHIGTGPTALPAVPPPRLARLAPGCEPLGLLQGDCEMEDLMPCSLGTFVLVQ
Sequence of SIK2 (Q9H0K1 whole entry, species assumed): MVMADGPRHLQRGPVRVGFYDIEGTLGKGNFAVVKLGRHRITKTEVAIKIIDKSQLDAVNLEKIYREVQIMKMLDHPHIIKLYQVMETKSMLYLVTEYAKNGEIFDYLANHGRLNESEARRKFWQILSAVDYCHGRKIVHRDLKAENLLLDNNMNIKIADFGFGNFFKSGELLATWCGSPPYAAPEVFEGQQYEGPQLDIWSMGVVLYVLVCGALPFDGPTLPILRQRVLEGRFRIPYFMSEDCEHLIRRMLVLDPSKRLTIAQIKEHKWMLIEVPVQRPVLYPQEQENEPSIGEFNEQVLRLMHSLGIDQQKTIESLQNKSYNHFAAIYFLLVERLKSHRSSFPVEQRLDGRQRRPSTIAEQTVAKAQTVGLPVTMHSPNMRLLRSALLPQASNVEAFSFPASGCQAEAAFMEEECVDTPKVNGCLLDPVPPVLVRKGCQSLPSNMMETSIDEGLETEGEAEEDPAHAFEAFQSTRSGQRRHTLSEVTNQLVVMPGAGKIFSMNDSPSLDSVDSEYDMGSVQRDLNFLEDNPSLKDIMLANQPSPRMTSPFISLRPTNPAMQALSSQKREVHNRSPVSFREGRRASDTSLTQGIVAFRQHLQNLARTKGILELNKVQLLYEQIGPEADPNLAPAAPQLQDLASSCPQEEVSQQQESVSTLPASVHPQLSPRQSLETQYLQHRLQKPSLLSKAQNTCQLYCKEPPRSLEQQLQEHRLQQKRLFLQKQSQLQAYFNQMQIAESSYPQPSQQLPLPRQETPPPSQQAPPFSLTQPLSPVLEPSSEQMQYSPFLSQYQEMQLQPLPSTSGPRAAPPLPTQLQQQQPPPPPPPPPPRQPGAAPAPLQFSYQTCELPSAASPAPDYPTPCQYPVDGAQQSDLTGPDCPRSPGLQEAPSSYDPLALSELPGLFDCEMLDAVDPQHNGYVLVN
Sequence of SIK3 (Q9Y2K2 whole entry, species assumed): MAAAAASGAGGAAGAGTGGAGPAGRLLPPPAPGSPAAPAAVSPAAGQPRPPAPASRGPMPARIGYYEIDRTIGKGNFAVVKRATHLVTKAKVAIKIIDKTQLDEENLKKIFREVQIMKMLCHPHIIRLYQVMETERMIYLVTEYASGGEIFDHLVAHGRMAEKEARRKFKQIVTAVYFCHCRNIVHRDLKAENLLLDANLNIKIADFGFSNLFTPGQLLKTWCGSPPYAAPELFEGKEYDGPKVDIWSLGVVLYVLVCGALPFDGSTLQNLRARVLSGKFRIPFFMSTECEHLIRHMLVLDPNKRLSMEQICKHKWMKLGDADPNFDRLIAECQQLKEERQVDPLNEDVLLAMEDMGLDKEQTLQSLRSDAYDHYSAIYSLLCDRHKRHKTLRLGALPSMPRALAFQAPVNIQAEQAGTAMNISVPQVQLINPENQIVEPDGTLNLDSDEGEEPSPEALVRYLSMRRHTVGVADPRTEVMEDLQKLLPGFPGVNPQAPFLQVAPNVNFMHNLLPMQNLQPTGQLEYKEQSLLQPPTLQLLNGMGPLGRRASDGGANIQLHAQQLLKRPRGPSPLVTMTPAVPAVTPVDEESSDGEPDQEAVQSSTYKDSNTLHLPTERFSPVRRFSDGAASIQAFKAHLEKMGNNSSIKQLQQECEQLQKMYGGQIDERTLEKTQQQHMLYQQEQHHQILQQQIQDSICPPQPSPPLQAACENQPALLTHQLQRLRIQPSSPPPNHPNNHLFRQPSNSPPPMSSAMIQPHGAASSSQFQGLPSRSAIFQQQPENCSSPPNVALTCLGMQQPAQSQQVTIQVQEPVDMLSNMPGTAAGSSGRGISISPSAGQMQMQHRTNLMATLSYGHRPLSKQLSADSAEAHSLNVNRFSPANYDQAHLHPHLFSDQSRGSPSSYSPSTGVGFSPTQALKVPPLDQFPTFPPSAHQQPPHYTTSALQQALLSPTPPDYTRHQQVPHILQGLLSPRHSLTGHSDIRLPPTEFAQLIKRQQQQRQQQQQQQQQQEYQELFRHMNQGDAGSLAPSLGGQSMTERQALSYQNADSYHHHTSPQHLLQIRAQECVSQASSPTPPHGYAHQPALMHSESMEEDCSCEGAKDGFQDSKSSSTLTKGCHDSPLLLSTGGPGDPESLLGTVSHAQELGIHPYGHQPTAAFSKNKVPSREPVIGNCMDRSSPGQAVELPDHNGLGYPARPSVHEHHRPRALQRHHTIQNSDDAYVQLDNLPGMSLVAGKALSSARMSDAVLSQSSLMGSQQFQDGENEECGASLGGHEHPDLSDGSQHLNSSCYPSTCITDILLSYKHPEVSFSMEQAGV

For the compound “3-(3-((1-Aminocyclopentyl)methoxy)-4-cyano-5-(methylthio)phenyl)pyrazolo[1,5-a]pyridine-4-carbonitrile [Example 37]”, the pIC50 in test [1] was 9.52; in test [2] it was 9.40; in test [3] it was 9.05; in test [4], 8.41. Further, the pEC50 in test [5] was 7.57.
Turning to `CC[C@@H]1CCC[C@@]1(N)COc1cc(-c2cnc3cccc(OC)n23)cc(SC)c1C#N` (mixture of isomers) [Example 9, 2-(((1S,2R)-1-Amino-2-ethylcyclopentyl)methoxy)-4-(5-methoxyimidazo[1,2-a]pyridin-3-yl)-6-(methylthio)benzonitrile and 2-(((1R,2S)-1-amino-2-ethylcyclopentyl)methoxy)-4-(5-methoxyimidazo[1,2-a]pyridin-3-yl)-6-(methylthio)benzonitrile], in test [4] (Macrophage), the pIC50 is 8.28. In addition, the negative-log EC50 (pEC50) in test [5] (Macrophage) was 7.92.
In the case of `CSc1cc(-c2cnc3cccc(C#N)n23)cc(OC[C@@]2(N)CCC(F)(F)C2)c1C#N` (mixture of isomers) [Example 12, (R)-3-(3-((1-Amino-3,3-difluorocyclopentyl)methoxy)-4-cyano-5-(methylthio)phenyl)imidazo[1,2-a]pyridine-5-carbonitrile and (S)-3-(3-((1-amino-3,3-difluorocyclopentyl)methoxy)-4-cyano-5-(methylthio)phenyl)imidazo[1,2-a]pyridine-5-carbonitrile], in test [4] (Macrophage), the pIC50 was 7.70. This compound also had a pEC50 in test [5] (Macrophage) of 7.17.
As to `CSc1cc(-c2cnc3cccc(C#N)n23)cc(OC[C@@]2(N)CCCC(C)(C)C2)c1C#N` (mixture of isomers) [Example 14, (R)-3-(3-((1-Amino-3,3-dimethylcyclohexyl)methoxy)-4-cyano-5-(methylthio)phenyl)imidazo[1,2-a]pyridine-5-carbonitrile and (S)-3-(3-((1-amino-3,3-dimethylcyclohexyl)methoxy)-4-cyano-5-(methylthio)phenyl)imidazo[1,2-a]pyridine-5-carbonitrile], the pIC50 in test [1] was 9.22; in test [2], 8.82; in test [3], 8.92; in test [4] (Macrophage) it was 7.86. Also, the negative-log EC50 (pEC50) in test [5] (Macrophage) was 7.35.
For `CSc1cc(-c2cnc3ccccn23)cc(OC[C@]2(N)CCSC2)c1C#N` (mixture of isomers) [Example 22, (R)-2-((3-Aminotetrahydrothiophen-3-yl)methoxy)-4-(imidazo[1,2-a]pyridin-3-yl)-6-(methylthio)benzonitrile and (S)-2-((3-Aminotetrahydrothiophen-3-yl)methoxy)-4-(imidazo[1,2-a]pyridin-3-yl)-6-(methylthio)benzonitrile], the negative logarithm of the IC50 (pIC50) in test [1] was 8.80; in test [2], 8.89; in test [3], 8.23; in test [4] (Macrophage), 7.49. Further, in test [5] (Macrophage), the pEC50 was 6.45.
The corresponding values for `CSc1cc(-c2cnc3ccccn23)cc(OC[C@@]2(N)CCC(F)(F)C2)c1C#N` (mixture of isomers) [Example 25, (R)-2-((1-Amino-3,3-difluorocyclopentyl)methoxy)-4-(imidazo[1,2-a]pyridin-3-yl)-6-(methylthio)benzonitrile and (S)-2-((1-amino-3,3-difluorocyclopentyl)methoxy)-4-(imidazo[1,2-a]pyridin-3-yl)-6-(methylthio)benzonitrile] are 8.64, 9.05, 8.28, 7.81 and 6.75.
With `COCC1CCC[C@@](N)(COc2cc(-c3cnc4ccccn34)cc(SC)c2C#N)C1` (mixture of isomers) [Example 31, 2-(((1S)-1-Amino-3-(methoxymethyl)cyclohexyl)methoxy)-4-(imidazo[1,2-a]pyridin-3-yl)-6-(methylthio)benzonitrile and 2-(((1R)-1-amino-3-(methoxymethyl)-cyclohexyl)methoxy)-4-(imidazo[1,2-a]pyridin-3-yl)-6-(methylthio)benzonitrile], the negative logarithm of the IC50 (pIC50) in test [1] was 9.15; in test [2], 8.80; in test [3] it was 8.32; in test [4], 7.86. For the same compound, the pEC50 in test [5] was 7.44.
The like results for `CSc1cc(-c2cnc3ccccn23)cc(OC[C@@]2(N)CCC[C@H](C(F)(F)F)C2)c1C#N.CSc1cc(-c2cnc3ccccn23)cc(OC[C@]2(N)CCC[C@@H](C(F)(F)F)C2)c1C#N` (mixture of isomers) [Example 33B, 2-(((1R,3S)-1-Amino-3-(trifluoromethyl)cyclohexyl)methoxy)-4-(imidazo[1,2-a]pyridin-3-yl)-6-(methylthio)benzonitrile and 2-(((1S,3R)-1-amino-3-(trifluoromethyl)cyclohexyl)methoxy)-4-(imidazo[1,2-a]pyridin-3-yl)-6-(methylthio)benzonitrile] were, in that order, 7.96, 8.00, 7.63, 6.59 and 6.47.
For the compound `CC[C@@H]1CCC[C@@]1(N)COc1cc(-c2cnc3cccc(C#N)n23)cc(SC)c1C#N` (racemic) [Example 7, 3-(3-(((1S,2R)-1-Amino-2-ethylcyclopentyl)methoxy)-4-cyano-5-(methylthio)phenyl)imidazo[1,2-a]pyridine-5-carbonitrile and 3-(3-(((1R,2S)-1-amino-2-ethylcyclopentyl)methoxy)-4-cyano-5-(methylthio)phenyl)imidazo[1,2-a]pyridine-5-carbonitrile], the pIC50 is 9.30 in test [1], 9.10 in test [2], 8.74 in test [3] and 8.82 in test [4] (Macrophage). For the same compound, the pEC50 in test [5] (Macrophage) is 8.30.
For `CC[C@H]1CCC[C@@](N)(COc2cc(-c3cnc4cccc(C#N)n34)cc(SC)c2C#N)C1` (racemic) [Example 18, 3-(3-(((1S,3S)-1-Amino-3-ethylcyclohexyl)methoxy)-4-cyano-5-(methylthio)phenyl)imidazo[1,2-a]pyridine-5-carbonitrile and 3-(3-(((1R,3R)-1-amino-3-ethylcyclohexyl)methoxy)-4-cyano-5-(methylthio)phenyl)imidazo[1,2-a]pyridine-5-carbonitrile], the pIC50 in test [1] is 10.00; in test [2], 9.22; in test [3], 9.00; in test [4] (Macrophage), 8.96. Further, the pEC50 in test [5] (Macrophage) is 8.30.
In the case of `CC[C@@H]1CCC[C@](N)(COc2cc(-c3cnc4cccc(OC)n34)cc(OC)c2C#N)C1` [Example 16, 2-(((1R,3R)-1-Amino-3-ethylcyclohexyl)methoxy)-6-methoxy-4-(5-methoxyimidazo[1,2-a]pyridin-3-yl)benzonitrile and 2-(((16,36)-1-Amino-3-ethylcyclohexyl)methoxy)-6-methoxy-4-(5-methoxyimidazo[1,2-a]pyridin-3-yl)benzonitrile], the pIC50 in test [4] (Macrophage) is 8.32. Further, the pEC50 in test [5] (Macrophage) was 7.85.
